Experimental data as given in the supplement of paper PMC10307832.

compound: COc1cccc2c1C(=O)c1c(O)c3c(c(O)c1C2=O)C[C@@](O)(C(=O)CO)C[C@@H]3O[C@H]1C[C@H](N)[C@H](O)[C@H](C)O1 [Doxorubicin] + Cc1nc(NC(=O)N2CCC[C@H]2C(N)=O)sc1-c1ccnc(C(C)(C)C(F)(F)F)c1 [Alpelisib] (partner 2 µM); experiment: relative viability (nuclei count vs DMSO), 5 days (fraction); higher = more cells survive; settings: first compound 0.003162 µM
Method in brief: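 The day after seeding in 1536-well plates, lung cancer cell lines were treated by pin tool with a single drug, or with a fixed anchor-drug dose together with five library-drug doses (not always all listed) in √10 steps. After 5 days, a combined fix-and-stain solution (final 0.05% Triton X-100, 1% formaldehyde, 1 ug/ml Hoechst) was added. Nuclei counted on 4× images gave relative viability as treated counts over vehicle counts, reported as the median of duplicate plates.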

In order of rising relative viability:
1. NCI-H1703  0.293
2. NCI-H2023  0.617
3. A549  0.676
4. NCI-H661  0.702
5. SW 1573  0.731
6. IA-LM  0.742
7. COR-L23  0.806
8. NCI-H2228  0.822
9. NCI-H1563  0.824
10. NCI-H1792  0.836
11. SK-MES-1  0.877
12. EBC-1  0.921
13. SK-LU-1  0.995
14. Calu-6  1.01
15. NCI-H520  1.05
16. NCI-H1299  1.12
17. COR-L 105  1.13
18. NCI-H2009  1.2

same assay, conditions: first compound 0.01 µM

In order of rising relative viability:
1. NCI-H1703  0.365
2. A549  0.48
3. NCI-H661  0.511
4. NCI-H2023  0.524
5. NCI-H1792  0.538
6. SW 1573  0.641
7. NCI-H2228  0.647
8. IA-LM  0.669
9. NCI-H1563  0.726
10. SK-LU-1  0.783
11. SK-MES-1  0.819
12. EBC-1  0.823
13. NCI-H520  0.858
14. Calu-6  0.866
15. COR-L23  0.866
16. COR-L 105  0.928
17. NCI-H1299  1.08
18. NCI-H2009  1.17

same assay, conditions: first compound 0.03162 µM

In order of rising relative viability:
1. A549  0.132
2. NCI-H2023  0.203
3. NCI-H1703  0.214
4. NCI-H2228  0.393
5. COR-L23  0.428
6. SW 1573  0.447
7. SK-LU-1  0.46
8. Calu-6  0.529
9. NCI-H1563  0.529
10. IA-LM  0.544
11. COR-L 105  0.551
12. NCI-H661  0.592
13. EBC-1  0.61
14. NCI-H1792  0.679
15. NCI-H520  0.732
16. SK-MES-1  0.785
17. NCI-H2009  1.07
18. NCI-H1299  1.07

same assay, conditions: first compound 0.1 µM

In order of rising relative viability:
1. A549  0.0649
2. NCI-H2023  0.0842
3. COR-L23  0.128
4. NCI-H2228  0.198
5. NCI-H1703  0.201
6. Calu-6  0.295
7. COR-L 105  0.312
8. SK-LU-1  0.322
9. EBC-1  0.405
10. IA-LM  0.427
11. SW 1573  0.428
12. NCI-H661  0.469
13. NCI-H2009  0.478
14. NCI-H1563  0.51
15. NCI-H1792  0.548
16. SK-MES-1  0.573
17. NCI-H520  0.738
18. NCI-H1299  1.06
